Reference: the supplement of paper PMC8617591

What was measured:
[1] = test system: Mycobacterium tuberculosis Erdman (autoluminescent); assay: total FIC50 (Loewe) at 50% inhibition, three-drug combination (log2); higher = more antagonistic
Procedure: (§1)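 DiaMOND equipotent three-drug combination dose responses (10 doses, 1.5- or 2-fold spacing, centred on IC90) against autoluminescent M. tuberculosis Erdman in 8 in vitro models. Read-out is OD600, or luminescence for the intracellular and dormancy models, normalised to untreated wells. Hill-fit Einf, AUC25 and GRinf are potency metrics; FIC50 and FIC90 are total Loewe fractional inhibitory concentrations as log2 (negative = synergy).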

[2] = test system: Mycobacterium tuberculosis Erdman (autoluminescent); assay: total FIC90 (Loewe) at 90% inhibition, three-drug combination (log2); higher = more antagonistic
Procedure: as §1

[3] = test system: Mycobacterium tuberculosis Erdman (autoluminescent); assay: Einf, fitted maximum growth inhibition of three-drug combination (fraction); higher = stronger maximal inhibition
Procedure: as §1

[4] = test system: Mycobacterium tuberculosis Erdman (autoluminescent); assay: AUC25, normalised area under dose response up to IC25 (three-drug combination) (fraction (0-1)); higher = more potent at low dose
Procedure: as §1

[5] = test system: Mycobacterium tuberculosis Erdman (autoluminescent); assay: GRinf, maximum normalised growth rate inhibition (three-drug combination) (unitless (-1 to 1)); higher = less effect (negative = killing)
Procedure: as §1

COc1nc2ccc(Br)cc2cc1[C@@H](c1ccccc1)[C@@](O)(CCN(C)C)c1cccc2ccccc12 [bedaquiline] + CC(=O)NC[C@H]1CN(c2ccc(N3CCOCC3)c(F)c2)C(=O)O1 [linezolid] + NC(=O)c1cnccn1 [pyrazinamide]
Conditions	AUC25, [4]	Einf, [3]	GRinf, [5]	total FIC50, [1]	total FIC90, [2]
in vitro model: acidic pH 5.7, time point: constant (~7 days, model-specific)	0.076	0.806	-0.494	0.125	–
in vitro model: acidic pH 5.7, time point: terminal (~4-5 doublings, model-specific)	0.0793	0.981	-0.392	0.681	0.133
in vitro model: intracellular J774, time point: constant = terminal	–	0.928	-0.132	–	0.532

Conditions	AUC25, [4]	Einf, [3]	GRinf, [5]	total FIC50, [1]	total FIC90, [2]
in vitro model: butyrate, time point: constant (~7 days, model-specific)	0.101	0.947	-0.127	-0.0949	0.0532
in vitro model: butyrate, time point: terminal (~4-5 doublings, model-specific)	0.0821	0.975	-0.116	-0.166	0.0226
in vitro model: cholesterol 0.05 mM, time point: constant (~7 days, model-specific)	0.142	0.767	-0.355	–	–
in vitro model: cholesterol 0.05 mM, time point: terminal (~4-5 doublings, model-specific)	0.141	0.969	-0.491	0.0813	–
in vitro model: cholesterol-high 0.2 mM, time point: constant (~7 days, model-specific)	0.109	0.967	-0.577	0.197	–
in vitro model: cholesterol-high 0.2 mM, time point: terminal (~4-5 doublings, model-specific)	0.105	1	-0.793	0.121	0.311
in vitro model: dormancy (butyrate + nitrate, low O2), time point: constant (~7 days, model-specific)	0.0774	0.92	0.268	-0.772	-0.755
in vitro model: dormancy (butyrate + nitrate, low O2), time point: terminal (~4-5 doublings, model-specific)	0.0469	0.989	-0.0748	-0.0476	-0.67
in vitro model: standard 7H9 glycerol, time point: constant = terminal	0.0828	0.934	-0.00964	0.406	–
in vitro model: valerate, time point: constant (~7 days, model-specific)	0.0833	0.886	-0.102	0.362	–
in vitro model: valerate, time point: terminal (~4-5 doublings, model-specific)	0.0634	0.942	-0.069	0.455	0.406

COc1nc2ccc(Br)cc2cc1[C@@H](c1ccccc1)[C@@](O)(CCN(C)C)c1cccc2ccccc12 [bedaquiline] + CC(=O)NC[C@H]1CN(c2ccc(N3CCOCC3)c(F)c2)C(=O)O1 [linezolid] + O=[N+]([O-])c1cn2c(n1)OC[C@@H](OCc1ccc(OC(F)(F)F)cc1)C2 [pretomanid]
Conditions	AUC25, [4]	Einf, [3]	GRinf, [5]	total FIC50, [1]	total FIC90, [2]
in vitro model: acidic pH 5.7, time point: constant (~7 days, model-specific)	0.118	0.937	-0.508	0.414	–
in vitro model: acidic pH 5.7, time point: terminal (~4-5 doublings, model-specific)	0.0812	0.992	-0.56	0.58	0.474
in vitro model: intracellular J774, time point: constant = terminal	–	0.99	-0.78	–	1.25

Conditions	AUC25, [4]	Einf, [3]	GRinf, [5]	total FIC50, [1]	total FIC90, [2]
in vitro model: butyrate, time point: constant (~7 days, model-specific)	0.105	0.943	-0.119	0.731	1.49
in vitro model: butyrate, time point: terminal (~4-5 doublings, model-specific)	0.0754	0.97	-0.0976	0.645	0.887
in vitro model: cholesterol 0.05 mM, time point: constant (~7 days, model-specific)	0.136	0.738	-0.284	0.169	–
in vitro model: cholesterol 0.05 mM, time point: terminal (~4-5 doublings, model-specific)	0.141	0.962	-0.303	0.274	0.577
in vitro model: cholesterol-high 0.2 mM, time point: constant (~7 days, model-specific)	0.112	0.948	-0.376	0.197	–
in vitro model: cholesterol-high 0.2 mM, time point: terminal (~4-5 doublings, model-specific)	0.115	1	-0.834	-0.088	0.591
in vitro model: dormancy (butyrate + nitrate, low O2), time point: constant (~7 days, model-specific)	0.0459	0.92	0.23	-0.22	-0.616
in vitro model: dormancy (butyrate + nitrate, low O2), time point: terminal (~4-5 doublings, model-specific)	0.0294	0.988	-0.115	-0.261	-1.1
in vitro model: standard 7H9 glycerol, time point: constant = terminal	0.0809	0.955	-0.108	0.296	0.191
in vitro model: valerate, time point: constant (~7 days, model-specific)	0.139	0.929	-0.172	0.447	1.63
in vitro model: valerate, time point: terminal (~4-5 doublings, model-specific)	0.115	0.958	-0.132	0.00392	1.32

COc1nc2ccc(Br)cc2cc1[C@@H](c1ccccc1)[C@@](O)(CCN(C)C)c1cccc2ccccc12 [bedaquiline] + CC(C)/N=c1\cc2n(-c3ccc(Cl)cc3)c3ccccc3nc-2cc1Nc1ccc(Cl)cc1 [clofazimine] + CC(=O)NC[C@H]1CN(c2ccc(N3CCOCC3)c(F)c2)C(=O)O1 [linezolid]
Conditions	AUC25, [4]	Einf, [3]	GRinf, [5]	total FIC50, [1]	total FIC90, [2]
in vitro model: acidic pH 5.7, time point: constant (~7 days, model-specific)	0.0792	0.874	-0.465	0.0418	–
in vitro model: acidic pH 5.7, time point: terminal (~4-5 doublings, model-specific)	0.0781	0.97	-0.331	0.786	0.299
in vitro model: intracellular J774, time point: constant = terminal	–	0.929	-0.17	–	0.186

Conditions	AUC25, [4]	Einf, [3]	GRinf, [5]	total FIC50, [1]	total FIC90, [2]
in vitro model: butyrate, time point: constant (~7 days, model-specific)	0.0701	0.947	-0.105	0.0722	-0.55
in vitro model: butyrate, time point: terminal (~4-5 doublings, model-specific)	0.0486	0.977	-0.115	0.112	-0.466
in vitro model: cholesterol 0.05 mM, time point: constant (~7 days, model-specific)	0.14	0.769	-0.304	-0.461	–
in vitro model: cholesterol 0.05 mM, time point: terminal (~4-5 doublings, model-specific)	0.137	0.951	-0.374	-0.129	-0.783
in vitro model: cholesterol-high 0.2 mM, time point: constant (~7 days, model-specific)	0.0852	0.944	-0.281	-0.437	-0.594
in vitro model: cholesterol-high 0.2 mM, time point: terminal (~4-5 doublings, model-specific)	0.0962	0.999	-0.488	-0.195	-0.484
in vitro model: dormancy (butyrate + nitrate, low O2), time point: constant (~7 days, model-specific)	0.0703	0.913	0.219	-0.36	-0.911
in vitro model: dormancy (butyrate + nitrate, low O2), time point: terminal (~4-5 doublings, model-specific)	0.0497	0.99	-0.161	-0.24	-0.848
in vitro model: standard 7H9 glycerol, time point: constant = terminal	0.0911	0.962	-0.0979	-0.27	-0.871
in vitro model: valerate, time point: constant (~7 days, model-specific)	0.134	0.931	-0.127	0.0537	-0.00887
in vitro model: valerate, time point: terminal (~4-5 doublings, model-specific)	0.0869	0.944	-0.0541	0.263	1.19
